Data taken from patent publication US20150191469A1, “COMPOUNDS AND METHODS FOR TREATING HIV” (priority 2012, published 2015).

The compounds below were run on HIV (assay: MT4 assay: antiviral HIV activity (cell protection, cell titer glo readout at 96 hours)). Settings: Human immunodeficiency virus 1, MT4, 96 h, MT4 cells, cell titer glo readout at 96 hours, 10 point dose response; read-out: HIV MT4 Assay IC50.
Type: cell-based
Procedure, shortened: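 MT-4 cells infected with HIV, with inhibition readout by CellTiter-Glo luminescence at 96 h relative to no-compound control. Cytotoxicity measured in parallel under the same conditions. IC50 from a 10-point, 3-4-fold dilution series spanning >1000-fold, fitted with a four-parameter logistic equation.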

In order of rising IC50:
1. Cc1nc2c(cc(-c3nsc(N4CCN(C5CCOCC5)CC4)n3)n2C)c(-c2cc(F)c3c(c2C)CCCO3)c1[C@H](OC(C)(C)C)C(=O)O [Example 375]  1.5 nM
2. Cc1nc2c(cc(-c3ccnc(-c4ccc5c(cnn5C5COC5)c4)c3)n2C)c(-c2cc(F)c3c(c2C)CCCO3)c1[C@H](OC(C)(C)C)C(=O)O [Example 65]  2.4 nM
3. Cc1nc2c(cc(-c3ccnc(-c4ccc5nn(C)nc5c4)c3)n2C)c(-c2cc(F)c3c(c2C)CCCO3)c1[C@H](OC(C)(C)C)C(=O)O [Example 61]  2.6 nM
4. Cc1nc2c(cc(-c3nnc(N4CCCCC4)o3)n2C)c(-c2cc(F)c3c(c2C)CCCO3)c1[C@H](OC(C)(C)C)C(=O)O [Example 345]  2.7 nM
5. Cc1nc2c(cc(-c3nnc(N4CCC(F)CC4)o3)n2C)c(-c2cc(F)c3c(c2C)CCCO3)c1[C@H](OC(C)(C)C)C(=O)O [Example 346]  2.7 nM
6. Cc1nc2c(cc(-c3ccnc(-c4ccc5nn(C6COC6)cc5c4)c3)n2C)c(-c2cc(F)c3c(c2C)CCCO3)c1[C@H](OC(C)(C)C)C(=O)O [Example 64]  2.8 nM
7. Cc1nc2c(cc(-c3nnc(N4CCN5CCC[C@H]5C4)o3)n2C)c(-c2cc(F)c3c(c2C)CCCO3)c1[C@H](OC(C)(C)C)C(=O)O [Example 348]  3.1 nM
8. Cc1nc2c(cc(C(=O)NCCC(C)C)n2C)c(-c2cc(F)c3c(c2C)CCCO3)c1[C@H](OC(C)(C)C)C(=O)O [Example 268]  3.4 nM
9. Cc1nc2c(cc(C(=O)NCc3cccc(Cl)c3)n2C)c(-c2cc(F)c3c(c2C)CCCO3)c1[C@H](OC(C)(C)C)C(=O)O [Example 255]  3.8 nM
10. Cc1nc2c(cc(-c3nc(N4CCN5CCC[C@H]5C4)ns3)n2C)c(-c2cc(F)c3c(c2C)CCCO3)c1[C@H](OC(C)(C)C)C(=O)O [Example 383]  4.1 nM
11. Cc1nc2c(cc(-c3ccnc(-c4ccc5nccn5c4)c3)n2C)c(-c2cc(F)c3c(c2C)CCCO3)c1[C@H](OC(C)(C)C)C(=O)O (atropisomer, axis not shown) [Example 34]  4.2 nM
12. Cc1nc2c(cc(-c3nnc(N4CCN(C5CC5)CC4)o3)n2C)c(-c2cc(F)c3c(c2C)CCCO3)c1[C@H](OC(C)(C)C)C(=O)O [Example 336]  4.5 nM
13. Cc1nc2c(cc(-c3nnc(N4CCN(S(=O)(=O)N5CCCCC5)CC4)o3)n2C)c(-c2cc(F)c3c(c2C)CCCO3)c1[C@H](OC(C)(C)C)C(=O)O [Example 319]  4.9 nM
14. Cc1nc2c(cc(-c3nc(N4CCN(C(=O)N5CCCCC5)CC4)ns3)n2C)c(-c2cc(F)c3c(c2C)CCCO3)c1[C@H](OC(C)(C)C)C(=O)O [Example 384]  5.1 nM
15. Cc1nc2c(cc(-c3ccnc(-c4ccc5[nH]ncc5c4C)c3)n2C)c(-c2cc(F)c3c(c2C)CCCO3)c1[C@H](OC(C)(C)C)C(=O)O (atropisomer, axis not shown) [Example 68]  6.4 nM
16. Cc1nc2c(cc(-c3nnc(N4CCC(F)(F)CC4)o3)n2C)c(-c2cc(F)c3c(c2C)CCCO3)c1[C@H](OC(C)(C)C)C(=O)O [Example 314]  7.6 nM
17. Cc1nc2c(cc(-c3noc(N4CCC(C)CC4)n3)n2C)c(-c2cc(F)c3c(c2C)CCCO3)c1[C@H](OC(C)(C)C)C(=O)O (atropisomer, axis not shown; (M)) [Example 411, (2S)(M)-2-(tert-butoxy)-2-(-4-(8-fluoro-5-methylchroman-6-yl)-1,6-dimethyl-2-(5-(4-methylpiperidin-1-yl)-1,2,4-oxadiazol-3-yl)-1H-pyrrolo[2,3-b]pyridin-5-yl)acetic acid]  7.6 nM
18. Cc1nc2c(cc(-c3ccnc(-c4ccncc4)c3)n2C)c(-c2cc(F)c3c(c2C)CCCO3)c1[C@H](OC(C)(C)C)C(=O)O (atropisomer, axis not shown) [Example 46]  7.8 nM
19. COCCN(C)c1nnc(-c2cc3c(-c4cc(F)c5c(c4C)CCCO5)c([C@H](OC(C)(C)C)C(=O)O)c(C)nc3n2C)o1 [Example 307]  12.3 nM
20. Cc1nc2c(cc(-c3cnc(-c4ccc5c(cnn5C)c4)s3)n2C)c(-c2cc(F)c3c(c2C)CCCO3)c1[C@H](OC(C)(C)C)C(=O)O [Example 143]  12.5 nM
21. COc1ncc(-c2cc(-c3cc4c(-c5cc(F)c6c(c5C)CCCO6)c([C@H](OC(C)(C)C)C(=O)O)c(C)nc4n3C)ccn2)cn1 (atropisomer, axis not shown) [Example 52]  13.9 nM
22. Cc1nc2c(cc(-c3nnc(N4CCN(C5CCOCC5)CC4)s3)n2C)c(-c2cc(F)c3c(c2C)CCCO3)c1[C@H](OC(C)(C)C)C(=O)O [Example 376]  14.4 nM
23. Cc1nc2c(cc(-c3ccnc(N4C[C@H]5CC[C@@H]4C5)c3)n2C)c(-c2cc(F)c3c(c2C)CCCO3)c1[C@H](OC(C)(C)C)C(=O)O (atropisomer, axis not shown) [Example 99]  14.8 nM
24. Cc1nc2c(cc(-c3ccnc(-c4ccc5c(c4)NCC5)c3)n2C)c(-c2cc(F)c3c(c2C)CCCO3)c1[C@H](OC(C)(C)C)C(=O)O (atropisomer, axis not shown) [Example 56]  15 nM
25. Cc1nc2c(cc(-c3ccnc(-n4ccnc4C)c3)n2C)c(-c2cc(F)c3c(c2C)CCCO3)c1[C@H](OC(C)(C)C)C(=O)O (atropisomer, axis not shown) [Example 63]  15.4 nM
26. Cc1nc2c(cc(-c3nsc(N4CCNCC4)n3)n2C)c(-c2cc(F)c3c(c2C)CCCO3)c1[C@H](OC(C)(C)C)C(=O)O [Example 367]  17.5 nM
27. Cc1nc2c(cc(C(=O)NC(C)C)n2C)c(-c2cc(F)c3c(c2C)CCCO3)c1[C@H](OC(C)(C)C)C(=O)O [Example 244]  25.3 nM
28. Cc1nc2c(cc(-c3ccc(-c4ccc5c(cnn5C)c4)nc3)n2C)c(-c2cc(F)c3c(c2C)CCCO3)c1[C@H](OC(C)(C)C)C(=O)O (atropisomer, axis not shown) [Example 18, (2S)-2-(tert-butoxy)-2-[4-(8-fluoro-5-methyl-3,4-dihydro-2H-1-benzopyran-6-yl)-1,6-dimethyl-2-[6-(1-methyl-1H-indazol-5-yl)pyridin-3-yl]-1H-pyrrolo[2,3-b]pyridin-5-yl]acetic acid]  26.3 nM
29. Cc1nc2c(cc(-c3nc(N4CCC(F)CC4)ns3)n2C)c(-c2cc(F)c3c(c2C)CCCO3)c1[C@H](OC(C)(C)C)C(=O)O [Example 399]  28.7 nM
30. Cc1nc2c(cc(C(=O)NC[C@@H](C)c3ccccc3)n2C)c(-c2cc(F)c3c(c2C)CCCO3)c1[C@H](OC(C)(C)C)C(=O)O [Example 215]  30 nM
31. CCCn1cc(-c2cc3c(-c4cc(F)c5c(c4C)CCCO5)c([C@H](OC(C)(C)C)C(=O)O)c(C)nc3n2C)cn1 (atropisomer, axis not shown) [Example 132]  32.9 nM
32. Cc1nc2c(cc(-c3ccnc(C4=CCCCC4)c3)n2C)c(-c2cc(F)c3c(c2C)CCCO3)c1[C@H](OC(C)(C)C)C(=O)O (atropisomer, axis not shown) [Example 32]  34.5 nM
33. Cc1nc2c(cc(-c3ccnc(N4CCCN(C(=O)C5CC5)CC4)c3)n2C)c(-c2cc(F)c3c(c2C)CCCO3)c1[C@H](OC(C)(C)C)C(=O)O (atropisomer, axis not shown) [Example 104]  37.5 nM
34. Cc1nc2c(cc(-c3ccc4c(cnn4C)c3)n2C)c(-c2cc(F)c3c(c2C)CCCO3)c1[C@H](OC(C)(C)C)C(=O)O (atropisomer, axis not shown) [Example 134]  39.2 nM
35. Cc1nc2c(cc(-c3nc(NCCS(C)(=O)=O)ns3)n2C)c(-c2cc(F)c3c(c2C)CCCO3)c1[C@H](OC(C)(C)C)C(=O)O [Example 406]  39.2 nM
36. Cc1nc2c(cc(-c3cnn(CC4CN(C(=O)OC(C)(C)C)C4)c3)n2C)c(-c2cc(F)c3c(c2C)CCCO3)c1[C@H](OC(C)(C)C)C(=O)O [Example 186]  41.1 nM
37. Cc1nc2c(cc(-c3ccc4nccn4c3)n2C)c(-c2cc(F)c3c(c2C)CCCO3)c1[C@H](OC(C)(C)C)C(=O)O (atropisomer, axis not shown) [Example 136]  42.5 nM
38. Cc1nc2c(cc(-c3ccnc(N4CCCN(C(=O)C(C)C)CC4)c3)n2C)c(-c2cc(F)c3c(c2C)CCCO3)c1[C@H](OC(C)(C)C)C(=O)O (atropisomer, axis not shown) [Example 102]  45 nM
39. COCCN1CCCN(c2cc(-c3cc4c(-c5cc(F)c6c(c5C)CCCO6)c([C@H](OC(C)(C)C)C(=O)O)c(C)nc4n3C)ccn2)CC1 (atropisomer, axis not shown) [Example 103]  45 nM
40. Cc1nc2c(cc(-c3ccnc(-c4ccc5c(cnn5C)c4)c3)n2C)c(-c2ccccc2)c1[C@H](OC(C)(C)C)C(=O)O [Example 424]  46.4 nM
41. Cc1nc2c(cc(-c3ccnc(N4CCCN(C(=O)C5CCOCC5)CC4)c3)n2C)c(-c2cc(F)c3c(c2C)CCCO3)c1[C@H](OC(C)(C)C)C(=O)O (atropisomer, axis not shown) [Example 108]  131 nM
42. Cc1nc2c(cc(C(=O)N3CCC(c4ccc(C(N)=O)cc4)CC3)n2C)c(-c2cc(F)c3c(c2C)CCCO3)c1[C@H](OC(C)(C)C)C(=O)O [Example 178]  176 nM
43. Cc1nc2c(cc(C(=O)N3CCOC(C)(C(=O)NC4CCCC4)C3)n2C)c(-c2cc(F)c3c(c2C)CCCO3)c1[C@H](OC(C)(C)C)C(=O)O (stereo partly drawn) [Example 205]  373 nM
44. Cc1nc2c(cc(C(=O)NCCN3CCCC3)n2C)c(-c2cc(F)c3c(c2C)CCCO3)c1[C@H](OC(C)(C)C)C(=O)O [Example 275]  1000 nM
45. Cc1nc2c(cc(-c3ccnc(N4CCCN(C5COC5)CC4)c3)n2C)c(-c2ccccc2)c1[C@H](OC(C)(C)C)C(=O)O [Example 435]  3010 nM
46. CC(=O)NC1(c2ccccc2)CCN(C(=O)c2cc3c(-c4cc(F)c5c(c4C)CCCO5)c([C@H](OC(C)(C)C)C(=O)O)c(C)nc3n2C)CC1 [Example 217]  3380 nM
47. CC(=O)N1CCCN(C(=O)c2cc3c(-c4cc(F)c5c(c4C)CCCO5)c([C@H](OC(C)(C)C)C(=O)O)c(C)nc3n2C)CC1 [Example 197]  6810 nM
48. Cc1nc2c(cc(C(=O)N3CCn4cnnc4C3)n2C)c(-c2cc(F)c3c(c2C)CCCO3)c1[C@H](OC(C)(C)C)C(=O)O [Example 166]  50000 nM
